# Experimental data: patent US11000485B2, “Substituted hydroxystilbenes as AhR and Nrf2 modulators and their therapeutic applications” (Resolvex Pharmaceuticals Inc., priority 2017, dated 2021)
# Experiments:
# A549 cells = assay: Cell viability (MTS); assay type: cell-based; settings: Homo sapiens, A549, 48 hours
# Method: (§1) Cells were cultured in RPMI-1640 containing 10% FBS (Jurkat and THP-1) or DMEM containing 10% FBS (A549 and MDA-MB-435). On Day 1, 1-5×10^4 cells per well in 100 μL of the cell culture medium containing 0.5% FBS were seeded into a 96-well flat bottom plate. On Day 2, the test compounds were added to the culture at different concentrations in triplicates. The controls include triplicates of no compound treatment and cell culture medium without cells. The cells were incubated at 5% CO2, 37° C. for 48 hours. On Day 4, MTS reagent was added to each well and incubated at 37° C. for 4 hours. The absorbance was read at 490 nm. The percentage of inhibition was calculated using the formula: [1-(experiment reading-background reading)/(negative control reading-background reading)]×100.
# Jurkat cells [1] = assay: Cell viability (MTS); assay type: cell-based; settings: Homo sapiens, Jurkat, 48 hours
# Method: as §1
# MDA-MB-435 cells [2] = assay: Cell viability (MTS); assay type: cell-based; settings: Homo sapiens, MDA-MB-435, 48 hours
# Method: as §1
# THP1 cells = assay: Cell viability (MTS); assay type: cell-based; settings: Homo sapiens, THP-1, 48 hours
# Method: as §1
# Jurkat cells [3] = assay: Cell proliferation ([3H]-thymidine); assay type: cell-based; settings: Homo sapiens, Jurkat, 48 hours, read-out: Anti-proliferation IC50, Jurkat
# Method: (§2) Cells were cultured in RPMI-1640 containing 10% FBS (Jurkat) or DMEM containing 10% FBS (MDA-MB-435). On Day 1, 1×10^4 cells were seeded into one well of a 96-well white ISOPLATE™ with 0.5% FBS. The cells were cultured at 5% CO2, 37° C. overnight. On Day 2, the diluted test compounds were added into each well in a total volume of 100 μL of cell culture medium. For each cell line were set up three wells containing cells and only diluted DMSO as a negative (vehicle) control, and three wells without cells but containing the same volume and type of cell culture medium as background control. The cells were incubated at 5% CO2, 37° C. for 24 hours. On Day 3, 1 μL of [^3H]-thymidine was added into each well and incubation at 5% CO2, 37° C. was continued for another 24 hours. On Day 4, 30 μL of 50% TCA was added into each well and was incubated at 4° C. for 4 hours. Plates were washed with ddH2O four times and then air dried for 30 minutes followed by the addition of 100 μL of scintillation fluid into each well. The radioactivity was read using MICROBETA TRILUX™. The percentage of inhibition was calculated using the formula [1-(experiment reading-background reading)/(negative control reading-background reading)]×100.
# MDA-MB-435 cells [4] = assay: Cell proliferation ([3H]-thymidine); assay type: cell-based; settings: Homo sapiens, MDA-MB-435, 48 hours, read-out: Anti-proliferation IC50, MDA-MB-435
# Method: as §2
# AMPK (A1/B1/G1) = AMPK (A1/B1/G1) (Homo sapiens, UniProt Q13131); assay: Kinase profiling, recombinant kinase; assay type: biochemical; settings: 5 uM ATP
# AKT1 = AKT1 (Homo sapiens, UniProt P31749); assay: Kinase profiling, recombinant kinase; assay type: biochemical; settings: 5 uM ATP
# Method: (§3) Kinase profiling was conducted using different recombinant kinase targets against the compounds at 5 uM ATP. The kinases tested included AKT1 (RAC-alpha serine/threonine-protein kinas 1), JAK2, JAK3, p38α, p38β (p38 mitogen-activated protein kinase beta), GSK3β, SYK (Spleen tyrosine kinase), LCK, IKKα and IKKβ and CLK4. The test compounds were tested at 5 μM and 50 μM in triplicates.
# CLK4 = CLK4 (Homo sapiens, UniProt Q9HAZ1); assay: Kinase profiling, recombinant kinase; assay type: biochemical; settings: 5 uM ATP
# Method: as §3
# GSK3 β = GSK3 β (Homo sapiens, UniProt P49841); assay: Kinase profiling, recombinant kinase; assay type: biochemical; settings: 5 uM ATP
# Method: as §3
# IKK α = IKK α (Homo sapiens, UniProt O15111); assay: Kinase profiling, recombinant kinase; assay type: biochemical; settings: 5 uM ATP
# Method: as §3
# IKK β = IKK β (Homo sapiens, UniProt O14920); assay: Kinase profiling, recombinant kinase; assay type: biochemical; settings: 5 uM ATP
# Method: as §3
# JAK2 = JAK2 (Homo sapiens, UniProt O60674); assay: Kinase profiling, recombinant kinase; assay type: biochemical; settings: 5 uM ATP
# Method: as §3
# JAK3 = JAK3 (Homo sapiens, UniProt P52333); assay: Kinase profiling, recombinant kinase; assay type: biochemical; settings: 5 uM ATP
# Method: as §3
# LCK = LCK (Homo sapiens, UniProt P06239); assay: Kinase profiling, recombinant kinase; assay type: biochemical; settings: 5 uM ATP
# Method: as §3
# SYK = SYK (Homo sapiens, UniProt P43405); assay: Kinase profiling, recombinant kinase; assay type: biochemical; settings: 5 uM ATP
# Method: as §3
# p38 α = p38 α (Homo sapiens, UniProt Q16539); assay: Kinase profiling, recombinant kinase; assay type: biochemical; settings: 5 uM ATP
# Method: as §3
# p38 β = p38 β (Homo sapiens, UniProt Q15759); assay: Kinase profiling, recombinant kinase; assay type: biochemical; settings: 5 uM ATP
# Method: as §3
# [5] = molecular target: T1, recombinant human PDE4B1 enzyme (Homo sapiens, UniProt Q07343); assay: PDE4B1 radiometric enzyme assay; assay type: biochemical; settings: read-out: Inhibitory activity on PDE4B1 enzyme
# T1 construct: host or cells: baculoviral system
# Method: Assays were performed using recombinant human PDE4B1 enzyme expressed in a baculoviral system. […] The reactions were performed at 1 μM of cAMP. The test articles were each tested at 0.2 μM and 20 μM in triplicates.
# Sequence of IKK α (O15111 whole entry, species assumed): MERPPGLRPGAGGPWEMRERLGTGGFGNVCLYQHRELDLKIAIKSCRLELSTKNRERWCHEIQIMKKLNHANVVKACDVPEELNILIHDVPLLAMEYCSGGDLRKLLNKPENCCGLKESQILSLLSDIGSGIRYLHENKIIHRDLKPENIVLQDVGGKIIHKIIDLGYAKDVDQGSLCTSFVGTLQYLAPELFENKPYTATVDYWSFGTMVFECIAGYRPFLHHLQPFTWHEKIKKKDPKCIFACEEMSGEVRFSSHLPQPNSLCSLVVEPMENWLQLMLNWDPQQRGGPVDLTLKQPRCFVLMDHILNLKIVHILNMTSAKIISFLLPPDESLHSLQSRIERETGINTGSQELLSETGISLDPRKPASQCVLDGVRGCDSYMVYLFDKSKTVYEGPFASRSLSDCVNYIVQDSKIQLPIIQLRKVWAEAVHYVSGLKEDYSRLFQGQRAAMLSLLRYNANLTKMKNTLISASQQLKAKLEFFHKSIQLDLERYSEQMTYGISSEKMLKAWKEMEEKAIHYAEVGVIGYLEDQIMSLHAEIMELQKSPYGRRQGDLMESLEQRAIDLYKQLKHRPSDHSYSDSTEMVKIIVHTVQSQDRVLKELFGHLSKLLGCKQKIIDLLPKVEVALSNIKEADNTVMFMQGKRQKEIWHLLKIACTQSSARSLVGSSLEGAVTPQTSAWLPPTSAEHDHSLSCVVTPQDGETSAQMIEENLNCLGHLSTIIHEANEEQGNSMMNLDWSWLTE
# Sequence of JAK3 (P52333 whole entry, species assumed): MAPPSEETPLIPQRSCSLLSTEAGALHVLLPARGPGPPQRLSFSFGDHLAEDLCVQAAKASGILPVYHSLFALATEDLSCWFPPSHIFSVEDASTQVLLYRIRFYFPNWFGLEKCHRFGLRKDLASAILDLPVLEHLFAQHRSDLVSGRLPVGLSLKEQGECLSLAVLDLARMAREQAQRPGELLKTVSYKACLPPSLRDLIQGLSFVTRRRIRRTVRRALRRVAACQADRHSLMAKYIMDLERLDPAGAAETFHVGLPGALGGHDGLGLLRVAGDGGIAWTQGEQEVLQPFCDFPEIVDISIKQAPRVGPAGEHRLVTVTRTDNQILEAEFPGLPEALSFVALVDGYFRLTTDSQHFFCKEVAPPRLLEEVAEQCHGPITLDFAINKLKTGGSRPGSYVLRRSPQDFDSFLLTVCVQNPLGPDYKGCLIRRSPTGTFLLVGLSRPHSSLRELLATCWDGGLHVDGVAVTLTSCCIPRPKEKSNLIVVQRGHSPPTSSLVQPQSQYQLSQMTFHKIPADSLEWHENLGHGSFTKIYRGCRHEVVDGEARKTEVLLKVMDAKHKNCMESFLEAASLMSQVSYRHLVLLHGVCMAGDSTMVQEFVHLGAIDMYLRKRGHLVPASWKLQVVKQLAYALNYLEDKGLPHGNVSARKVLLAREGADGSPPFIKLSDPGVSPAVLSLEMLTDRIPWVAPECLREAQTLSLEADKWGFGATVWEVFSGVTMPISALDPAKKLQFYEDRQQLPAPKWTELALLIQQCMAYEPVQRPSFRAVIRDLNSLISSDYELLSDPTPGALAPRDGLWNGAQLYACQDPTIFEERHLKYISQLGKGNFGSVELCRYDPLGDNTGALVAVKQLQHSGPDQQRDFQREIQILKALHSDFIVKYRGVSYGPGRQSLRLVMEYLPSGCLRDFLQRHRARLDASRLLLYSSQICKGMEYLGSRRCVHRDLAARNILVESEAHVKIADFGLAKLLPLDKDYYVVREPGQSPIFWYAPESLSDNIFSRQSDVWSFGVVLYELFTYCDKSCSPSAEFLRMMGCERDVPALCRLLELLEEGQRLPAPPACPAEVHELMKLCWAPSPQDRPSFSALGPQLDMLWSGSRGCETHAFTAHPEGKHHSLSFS
# Sequence of p38 α (Q16539 whole entry): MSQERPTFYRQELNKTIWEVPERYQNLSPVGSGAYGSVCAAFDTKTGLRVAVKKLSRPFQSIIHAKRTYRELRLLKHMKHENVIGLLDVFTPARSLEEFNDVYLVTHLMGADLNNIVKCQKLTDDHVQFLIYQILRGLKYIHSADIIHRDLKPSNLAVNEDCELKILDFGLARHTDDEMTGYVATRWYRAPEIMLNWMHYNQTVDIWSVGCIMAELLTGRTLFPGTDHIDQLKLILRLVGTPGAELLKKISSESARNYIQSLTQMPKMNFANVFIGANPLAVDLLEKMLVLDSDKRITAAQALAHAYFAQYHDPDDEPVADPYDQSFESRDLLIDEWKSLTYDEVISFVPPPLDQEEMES
# Sequence of JAK2 (O60674 whole entry, species assumed): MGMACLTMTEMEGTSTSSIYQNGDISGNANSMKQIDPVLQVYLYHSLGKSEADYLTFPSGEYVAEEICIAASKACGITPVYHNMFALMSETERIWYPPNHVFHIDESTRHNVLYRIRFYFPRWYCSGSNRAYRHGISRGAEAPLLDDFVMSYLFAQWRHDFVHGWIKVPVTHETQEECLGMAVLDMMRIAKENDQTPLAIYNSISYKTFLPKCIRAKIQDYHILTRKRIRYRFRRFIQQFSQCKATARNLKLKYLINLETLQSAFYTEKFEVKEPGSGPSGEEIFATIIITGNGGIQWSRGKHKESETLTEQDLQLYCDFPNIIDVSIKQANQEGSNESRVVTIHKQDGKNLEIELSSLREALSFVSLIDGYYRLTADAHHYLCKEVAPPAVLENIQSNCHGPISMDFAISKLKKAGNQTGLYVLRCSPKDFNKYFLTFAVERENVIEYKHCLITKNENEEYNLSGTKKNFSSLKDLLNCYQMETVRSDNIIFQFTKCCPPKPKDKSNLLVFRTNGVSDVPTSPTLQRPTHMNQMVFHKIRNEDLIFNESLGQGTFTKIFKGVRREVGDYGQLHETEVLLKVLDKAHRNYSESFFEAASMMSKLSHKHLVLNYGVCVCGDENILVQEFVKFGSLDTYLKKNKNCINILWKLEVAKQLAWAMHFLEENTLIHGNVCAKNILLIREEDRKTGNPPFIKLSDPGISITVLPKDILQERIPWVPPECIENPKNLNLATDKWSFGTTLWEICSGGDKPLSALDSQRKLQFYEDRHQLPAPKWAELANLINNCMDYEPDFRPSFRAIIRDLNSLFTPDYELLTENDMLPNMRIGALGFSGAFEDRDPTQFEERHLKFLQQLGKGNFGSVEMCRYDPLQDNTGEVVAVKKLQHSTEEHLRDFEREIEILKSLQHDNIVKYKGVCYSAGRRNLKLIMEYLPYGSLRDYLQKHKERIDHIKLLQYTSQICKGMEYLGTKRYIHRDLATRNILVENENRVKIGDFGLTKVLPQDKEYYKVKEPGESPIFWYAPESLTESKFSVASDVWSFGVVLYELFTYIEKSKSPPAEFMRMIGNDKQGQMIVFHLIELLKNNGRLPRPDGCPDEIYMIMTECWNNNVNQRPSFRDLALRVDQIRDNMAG
# Sequence of GSK3 β (P49841 whole entry, species assumed): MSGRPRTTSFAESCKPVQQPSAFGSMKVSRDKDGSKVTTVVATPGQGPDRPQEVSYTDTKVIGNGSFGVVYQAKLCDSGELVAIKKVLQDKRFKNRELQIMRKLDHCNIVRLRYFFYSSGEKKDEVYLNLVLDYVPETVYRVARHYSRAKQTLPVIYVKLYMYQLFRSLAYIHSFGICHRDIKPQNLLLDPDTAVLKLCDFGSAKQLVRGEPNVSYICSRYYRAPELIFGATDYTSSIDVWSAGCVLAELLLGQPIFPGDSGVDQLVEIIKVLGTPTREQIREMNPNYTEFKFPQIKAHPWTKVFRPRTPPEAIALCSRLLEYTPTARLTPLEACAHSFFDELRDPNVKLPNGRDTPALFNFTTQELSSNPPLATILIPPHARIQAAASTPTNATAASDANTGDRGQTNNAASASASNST
# Sequence of CLK4 (Q9HAZ1 whole entry, species assumed): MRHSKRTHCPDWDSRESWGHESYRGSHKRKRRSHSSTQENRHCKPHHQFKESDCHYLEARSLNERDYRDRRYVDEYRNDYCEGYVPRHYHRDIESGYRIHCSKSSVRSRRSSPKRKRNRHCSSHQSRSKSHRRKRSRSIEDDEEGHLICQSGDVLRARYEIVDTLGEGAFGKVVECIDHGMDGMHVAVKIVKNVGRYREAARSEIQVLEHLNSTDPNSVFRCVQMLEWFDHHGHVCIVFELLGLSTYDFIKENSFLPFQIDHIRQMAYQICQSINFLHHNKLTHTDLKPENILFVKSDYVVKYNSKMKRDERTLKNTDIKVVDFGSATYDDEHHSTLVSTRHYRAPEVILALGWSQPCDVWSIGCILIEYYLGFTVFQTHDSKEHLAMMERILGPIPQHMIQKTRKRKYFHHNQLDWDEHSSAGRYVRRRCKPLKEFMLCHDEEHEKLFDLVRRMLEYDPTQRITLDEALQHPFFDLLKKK
# Sequence of p38 β (Q15759 whole entry): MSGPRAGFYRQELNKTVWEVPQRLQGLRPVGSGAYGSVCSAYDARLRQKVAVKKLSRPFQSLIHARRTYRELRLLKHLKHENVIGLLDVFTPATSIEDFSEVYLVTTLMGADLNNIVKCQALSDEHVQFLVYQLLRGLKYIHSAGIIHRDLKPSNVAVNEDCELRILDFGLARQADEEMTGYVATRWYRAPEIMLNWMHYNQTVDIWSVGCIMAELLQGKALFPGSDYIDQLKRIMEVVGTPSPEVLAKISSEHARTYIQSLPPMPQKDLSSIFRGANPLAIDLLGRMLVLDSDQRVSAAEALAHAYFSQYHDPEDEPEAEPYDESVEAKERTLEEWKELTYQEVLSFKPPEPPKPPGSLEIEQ
smiles,measurement,setting,value
"CC(C)c1ccc(/C=C/c2ccc(F)cc2)cc1O [Compound 2, 3-hydroxy-4-isopropyl-4′-fluoro-(E)-stilbene]",IC50,A549 cells,45 µM
same,IC50,Jurkat cells [1],7.6 µM
same,IC50,MDA-MB-435 cells [2],24.9 µM
same,IC50,THP1 cells,3.15 µM
same,IC50,Jurkat cells [3],1.67 µM
same,IC50,MDA-MB-435 cells [4],6.02 µM
same,inhibition at 5 µM,AMPK (A1/B1/G1); 5 μM compound,< 20%
same,inhibition at 50 µM,AMPK (A1/B1/G1); 50 μM compound,> 50%
same,inhibition at 5 µM,AKT1; 5 μM compound,< 20%
same,inhibition at 50 µM,AKT1; 50 μM compound,< 20%
same,inhibition at 5 µM,CLK4; 5 μM compound,> 50%
same,inhibition at 50 µM,CLK4; 50 μM compound,> 50%
same,inhibition at 5 µM,GSK3 β; 5 μM compound,< 20%
same,inhibition at 50 µM,GSK3 β; 50 μM compound,> 50%
same,inhibition at 5 µM,IKK α; 5 μM compound,< 20%
same,inhibition at 50 µM,IKK α; 50 μM compound,< 20%
same,inhibition at 5 µM,IKK β; 5 μM compound,< 20%
same,inhibition at 50 µM,IKK β; 50 μM compound,31 to 50%
same,inhibition at 5 µM,JAK2; 5 μM compound,< 20%
same,inhibition at 50 µM,JAK2; 50 μM compound,> 50%
same,inhibition at 5 µM,JAK3; 5 μM compound,< 20%
same,inhibition at 50 µM,JAK3; 50 μM compound,20 to 30%
same,inhibition at 5 µM,LCK; 5 μM compound,< 20%
same,inhibition at 50 µM,LCK; 50 μM compound,31 to 50%
same,inhibition at 5 µM,SYK; 5 μM compound,< 20%
same,inhibition at 50 µM,SYK; 50 μM compound,< 20%
same,inhibition at 5 µM,p38 α; 5 μM compound,< 20%
same,inhibition at 50 µM,p38 α; 50 μM compound,> 50%
same,inhibition at 5 µM,p38 β; 5 μM compound,< 20%
same,inhibition at 50 µM,p38 β; 50 μM compound,20 to 30%
same,inhibition at 0.2 µM,[5],15 to 30%
same,inhibition at 20 µM,[5],> 50%
